{
  "source": "patent US20060136140A1",
  "about": "“Method for identification and functional characterization of agents which modulate ion channel activity” (priority 2004, published 2006)",
  "key": {"[1]": {"target": "T1, HERG K+ channel (Homo sapiens, UniProt Q12809)", "T1 sequence (Q12809 whole entry)": "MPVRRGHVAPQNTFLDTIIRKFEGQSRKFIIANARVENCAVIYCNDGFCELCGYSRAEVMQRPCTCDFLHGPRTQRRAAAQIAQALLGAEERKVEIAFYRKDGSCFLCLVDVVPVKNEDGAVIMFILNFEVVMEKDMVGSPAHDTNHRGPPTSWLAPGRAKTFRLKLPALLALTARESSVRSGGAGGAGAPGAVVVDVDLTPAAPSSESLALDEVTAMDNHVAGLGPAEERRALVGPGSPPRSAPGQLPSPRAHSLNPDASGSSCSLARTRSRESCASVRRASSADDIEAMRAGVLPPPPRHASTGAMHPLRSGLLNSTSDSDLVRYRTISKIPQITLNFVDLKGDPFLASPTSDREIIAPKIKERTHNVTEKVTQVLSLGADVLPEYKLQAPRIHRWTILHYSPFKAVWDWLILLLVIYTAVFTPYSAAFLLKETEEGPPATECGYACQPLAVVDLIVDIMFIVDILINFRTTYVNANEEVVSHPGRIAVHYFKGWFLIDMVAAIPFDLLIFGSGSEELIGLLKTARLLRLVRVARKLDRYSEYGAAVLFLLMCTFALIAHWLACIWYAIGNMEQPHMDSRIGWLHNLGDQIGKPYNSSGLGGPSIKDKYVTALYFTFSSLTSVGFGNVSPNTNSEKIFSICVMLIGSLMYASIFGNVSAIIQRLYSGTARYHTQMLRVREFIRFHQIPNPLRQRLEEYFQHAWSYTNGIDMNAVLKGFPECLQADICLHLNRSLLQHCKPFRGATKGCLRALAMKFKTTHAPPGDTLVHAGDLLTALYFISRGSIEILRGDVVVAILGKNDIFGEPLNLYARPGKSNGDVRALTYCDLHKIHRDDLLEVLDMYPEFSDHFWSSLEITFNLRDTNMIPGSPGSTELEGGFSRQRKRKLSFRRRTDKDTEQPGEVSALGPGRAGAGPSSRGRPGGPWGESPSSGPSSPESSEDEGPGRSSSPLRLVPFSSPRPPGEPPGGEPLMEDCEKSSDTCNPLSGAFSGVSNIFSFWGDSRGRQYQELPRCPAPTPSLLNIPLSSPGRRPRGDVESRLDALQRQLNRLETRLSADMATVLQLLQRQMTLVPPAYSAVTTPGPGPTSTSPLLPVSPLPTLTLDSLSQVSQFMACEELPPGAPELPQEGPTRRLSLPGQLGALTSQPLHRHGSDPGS"}, "[2]": {"target": "T1, HERG K+ channel", "procedure": "Cell functional assay using atomic absorption detection—Rubidium flux out of HERG-transfected CHO cells was characterized using a Shimadzu atomic absorption system. The amount of rubidium in the extracellular and intracellular compartments was determined after depolarization with 50 mM KCl, following a 3-minute incubation with test sample. The atomization buffer included 0.1% […]/1% HNO3 to suppress ionization of rubidium.\nMinor modification of the published protocol was necessary due to different expression levels of the HERG protein in recombinant cells.\nTwo injections per sample are made into a Shimadzu AA and if the cv reaches 10%, a third injection is performed; the computer selects the two closer values.", "remark": "listed apart in the source"}, "[3]": {"target": "T1, HERG K+ channel", "procedure": "Cell functional assay using membrane potential dye—A membrane potential dye-based functional assay based on the HERG-expressing CHO cells has been developed. This assay was performed on the same library in parallel with the radioligand and AA-based functional assay. HERG-expressing CHO cells were plated as for the AA assay, except they were loaded with […] DiBAC4 instead of RbCl. Test samples or controls were added inside a Molecular Devices FlexStation and readings were taken over a 25 minute time frame.\nMembrane Potential Assay Procedure—100 uL of 250,000 cells/mL in media were added to a 96-well assay plate and cultured overnight. The cells were washed with Hanks/HEPES buffer with 2 g/L of glucose (loading buffer) and 100 uL of warmed loading buffer was added. 80 uL of the FLIPR Membrane Potential dye (Molecular Devices; dissolved in loading buffer) was then added and the samples incubated for at 45 min at 37° C. Drugs (10× final concentration) in loading buffer were run along with no-drug controls. […] […] Maximum response plateau is expected at approximately 7 minutes. This value will be used for EC50 calculation. […] For the other “actives”, IC50 values will be determined in this assay and at 1 or 2 concentrations in the Rb^+ flux assay.\nOne whole cell based functional assay we employed was based on the voltage sensitive dye DiBac4, using a detection method originally developed by Dr. Vince Groppi of Pharmacia-Upjohn FLIPR and FlexStation fluorescence detection systems. Cells expressing ion channels like HERG protein are hyperpolarized in the resting state. Inhibition of ion channel activities allows cells to return to normal potential. As the cell membrane becomes more positive, dye migrates into cell membrane, increasing the quantum efficiency of the dye and thus increasing fluorescence. […] Large number of compounds may be readily tested in either 96- or 384-well format. The mechanism of detection is based on the dye translocation in response to changes of the membrane environment. In certain circumstances, it may be desirable to perform confirmatory assays.", "remark": "listed apart in the source"}, "[4]": {"target": "HERG potassium current (Homo sapiens, UniProt Q12809)", "sequence (Q12809 whole entry)": "as above", "conditions": "cited from earlier work"}, "[5]": {"target": "HERG protein (Homo sapiens, UniProt Q12809)", "sequence (Q12809 whole entry)": "as above", "method": "Membrane preparations and ligand binding assays—Frozen cell pellets were first thawed and homogenized in 10 to 20 ml of assay buffer. An aliquot was taken for protein determination and the remaining homogenate was centrifuged (48,000×g, 10 min., 4° C.). According to the determined protein concentration, the resultant pellet was suspended in Heylen's buffer and added to radioligand and test compound. […] Bound radioactivity was determined by liquid scintillation spectroscopy.\nSources of radioligand—Various different radioligands were used in order to identify candidates for a given binding site."}, "[6]": {"conditions": "radiolabeled form, wild type vs recombinant CHO cells"}},
  "note": "pIC50: −log10 of the molar value. “Also recorded” adds a separate entry of the source. Read-outs that look alike come from different tables or passages of the source. No end group written: not given here.",
  "data": [
    {"molecule": "O=c1[nH]c2ccccc2n1C1CCN(CCCC(c2ccc(F)cc2)c2ccc(F)cc2)CC1", "note": "[pimozide, Pimozide]", "values": [
      {"measurement": "activity in all three assays", "setting": "[1]", "value": "consistent and relatively potent activity"},
      {"measurement": "inhibition of HERG channel (Rb+ efflux), dose response", "setting": "[2]", "value": "completely inhibited"}
    ]},
    {"molecule": "COC(=O)C1=C(C)NC(C)=C(C(=O)OCCN(C)Cc2ccccc2)C1c1cccc([N+](=O)[O-])c1", "note": "(centres unmarked) [nicardipine, Nicardipine]", "values": [
      {"measurement": "activity in the dye-based assay", "setting": "[3]; 10^−5 M, room temperature", "value": "lack of functional activity; also recorded: did not exhibit any activity"},
      {"measurement": "activity in the dye-based assay", "setting": "[3]; 10^−5 M, room temperature, listed as Nicardipine", "value": "lacked activity"},
      {"measurement": "activity in the assay using atomic absorption", "setting": "[2]; 10^−5 M, room temperature", "value": "modestly active"}
    ]},
    {"molecule": "Fc1ccc(C(OCCN2CCN(CCCc3ccccc3)CC2)c2ccc(F)cc2)cc1", "note": "[GBR12909]", "values": [
      {"measurement": "activity in all three assays", "setting": "[1]", "value": "consistent and relatively potent activity"}
    ]},
    {"molecule": "CC[C@H]1OC(=O)[C@H](C)[C@@H](O[C@H]2C[C@@](C)(OC)[C@@H](O)[C@H](C)O2)[C@H](C)[C@@H](O[C@@H]2O[C@H](C)C[C@H](N(C)C)[C@H]2O)[C@](C)(OC)C[C@@H](C)C(=O)[C@H](C)[C@@H](O)[C@]1(C)O", "note": "[Clarithromycin]", "values": [
      {"measurement": "pIC50", "setting": "[4]", "value": 4.34}
    ]},
    {"molecule": "[^125I]-BeKm-1: custom preparation of the iodinated scorpion toxin (RPTDIKCSESYQCFPVCKSRFGKTNGRCVNGFCDCF; ends and bridges not checked; also: 125I iodinated, site not given here; UniProt Q9BKB7 22-57, looked up)", "values": [
      {"measurement": "binding of radiolabeled ligand, specificity for the recombinant protein", "setting": "[5]; [6]", "value": "did not observe sufficient binding"}
    ]},
    {"molecule": "O=C(CCCN1CCC(O)(c2ccc(Cl)cc2)CC1)c1ccc(F)cc1", "note": "[[^3H]-Haloperidol]", "values": [
      {"measurement": "binding of radiolabeled ligand, specificity for the recombinant protein", "setting": "[5]", "value": "high binding levels with both the wild type and the recombinant CHO cells"}
    ]},
    {"molecule": "c1ccc(CCCN2CCN(CCOC(c3ccccc3)c3ccccc3)CC2)cc1", "note": "[GBR12935]", "values": [
      {"measurement": "activity in all three assays", "setting": "[1]", "value": "consistent and relatively potent activity"}
    ]},
    {"molecule": "O=C(CCCN1CCC(O)(c2ccc(Cl)cc2)CC1)c1ccc(F)cc1", "note": "[haloperidol, Haloperidol]", "values": [
      {"measurement": "inhibition of HERG channel (Rb+ efflux), dose response", "setting": "[2]", "value": "completely inhibited"}
    ]},
    {"molecule": "CC(C)NCC(O)c1ccc(NS(C)(=O)=O)cc1", "note": "(racemic) [sotalol, (+/−)sotalol]", "values": [
      {"measurement": "activity in the dye-based assay", "setting": "[3]", "value": "did not exhibit any activity"},
      {"measurement": "activity in the assay using atomic absorption", "setting": "[2]", "value": "modestly active"}
    ]},
    {"molecule": "COC(=O)[C@H]1[C@@H](c2ccc(F)cc2)C[C@@H]2CC[C@H]1N2C", "note": "[WIN-35428]", "values": [
      {"measurement": "binding of radiolabeled ligand, specificity for the recombinant protein", "setting": "[5]; [6]", "value": "None of these compounds indicated sufficient specificity"}
    ]}
  ]
}
